Measurements from ChEMBL document CHEMBL1201862, “PubChem BioAssay data set” (2004).
Each block holds one compound with its values, some of them ahead of it. Calls of active or inactive are those of the source.

Experiments:
HEK293 [1] = experiment: NOD1 signaling inhibitors, primary screen, cell-based, luminescence, uHTS (AID 1578); format: functional; details: Homo sapiens
HEK293 [2] = experiment: cells; format: functional, cell-based; details: Homo sapiens
HEK293 [3] = experiment: cells; format: functional, cell-based; details: Homo sapiens; remark: listed apart in the source
[4] = biological target: Nucleotide-binding oligomerization domain-containing protein 2 (Homo sapiens, UniProt Q9HC29); experiment: NOD2 signaling inhibitors, cell-based, luminescence, uHTS, HEK293 (AID 1566); format: functional
Nucleotide-binding oligomerization domain-containing protein 2, sequence (Q9HC29 whole entry, the tested form may be a part): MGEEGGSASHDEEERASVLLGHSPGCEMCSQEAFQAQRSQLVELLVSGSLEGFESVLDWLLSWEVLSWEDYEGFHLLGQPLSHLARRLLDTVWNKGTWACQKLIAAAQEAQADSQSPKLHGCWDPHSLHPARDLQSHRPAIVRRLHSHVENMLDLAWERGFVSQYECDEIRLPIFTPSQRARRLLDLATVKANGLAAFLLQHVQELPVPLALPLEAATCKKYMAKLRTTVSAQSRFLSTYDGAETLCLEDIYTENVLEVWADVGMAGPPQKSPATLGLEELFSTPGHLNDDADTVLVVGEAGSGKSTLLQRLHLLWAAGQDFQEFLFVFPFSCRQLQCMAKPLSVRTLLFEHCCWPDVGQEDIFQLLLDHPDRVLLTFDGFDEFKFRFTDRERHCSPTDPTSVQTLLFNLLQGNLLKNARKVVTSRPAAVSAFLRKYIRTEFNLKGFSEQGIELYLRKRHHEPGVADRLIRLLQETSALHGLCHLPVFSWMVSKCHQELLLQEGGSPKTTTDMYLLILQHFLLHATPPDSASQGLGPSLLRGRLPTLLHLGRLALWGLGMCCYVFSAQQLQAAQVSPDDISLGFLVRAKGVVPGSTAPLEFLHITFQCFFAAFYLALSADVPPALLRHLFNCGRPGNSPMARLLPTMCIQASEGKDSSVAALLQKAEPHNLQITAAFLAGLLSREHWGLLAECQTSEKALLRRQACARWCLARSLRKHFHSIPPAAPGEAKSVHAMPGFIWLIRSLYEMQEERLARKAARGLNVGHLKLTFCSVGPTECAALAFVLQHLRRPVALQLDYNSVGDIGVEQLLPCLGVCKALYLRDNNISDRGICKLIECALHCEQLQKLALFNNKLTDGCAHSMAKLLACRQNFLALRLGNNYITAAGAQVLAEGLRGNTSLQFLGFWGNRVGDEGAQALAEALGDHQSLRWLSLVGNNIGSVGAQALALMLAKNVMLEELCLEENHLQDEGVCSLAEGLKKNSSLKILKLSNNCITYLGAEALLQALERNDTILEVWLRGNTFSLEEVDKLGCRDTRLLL

HEK293 [5] = experiment: NOD2 signaling inhibitors in MDP-stimulated cells, cell-based, uHTS, luminescence (AID 2001); format: functional; details: Homo sapiens
HEK293 [6] = experiment: cells; format: functional, cell-based; details: Homo sapiens; remark: listed apart in the source
Vibrio harveyi [7] = experiment: Quorum Sensing, LuxS, LuxPQ Measured in Microorganism System Using Plate Reader - 2035-01_Inhibitor_DoseNoFile_DryPowder_Activity. [Related pubchem assays (depositor defined):AID2106]; format: functional, organism-based
Vibrio harveyi [8] = experiment: inhibitors of AI-2 quorum sensing in V. harveyi, dose response, LuxS, LuxPQ, dry powder, set 2 (AID 493072); format: functional, organism-based
Cannabinoid receptor 2 [9] = biological target: T1, Cannabinoid receptor 2 (Homo sapiens, UniProt P34972); experiment: SAR analysis of antagonists of the Cannabinoid Receptor 2 using an Image-Based Assay - Set 2. [Related pubchem assays (depositor defined):AID1961, AID1965]; format: functional
T1 sequence (P34972 whole entry): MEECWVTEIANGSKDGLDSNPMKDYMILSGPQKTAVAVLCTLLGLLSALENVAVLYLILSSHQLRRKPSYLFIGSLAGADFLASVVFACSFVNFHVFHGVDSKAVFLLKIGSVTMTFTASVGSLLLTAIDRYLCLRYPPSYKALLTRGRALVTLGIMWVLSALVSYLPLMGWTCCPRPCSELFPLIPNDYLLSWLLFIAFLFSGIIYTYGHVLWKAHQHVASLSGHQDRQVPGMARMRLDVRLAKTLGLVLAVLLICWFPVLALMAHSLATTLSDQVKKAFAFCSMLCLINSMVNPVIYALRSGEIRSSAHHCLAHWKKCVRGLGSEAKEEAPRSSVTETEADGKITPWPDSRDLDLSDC

[10] = biological target: G-protein coupled receptor 55 (Homo sapiens, UniProt Q9Y2T6); experiment: SAR analysis of selective Agonists of GPR55 using an Image-Based Assay - Set 2. [Related pubchem assays (depositor defined):AID1961, AID1965]; format: functional
G-protein coupled receptor 55, sequence (Q9Y2T6 whole entry): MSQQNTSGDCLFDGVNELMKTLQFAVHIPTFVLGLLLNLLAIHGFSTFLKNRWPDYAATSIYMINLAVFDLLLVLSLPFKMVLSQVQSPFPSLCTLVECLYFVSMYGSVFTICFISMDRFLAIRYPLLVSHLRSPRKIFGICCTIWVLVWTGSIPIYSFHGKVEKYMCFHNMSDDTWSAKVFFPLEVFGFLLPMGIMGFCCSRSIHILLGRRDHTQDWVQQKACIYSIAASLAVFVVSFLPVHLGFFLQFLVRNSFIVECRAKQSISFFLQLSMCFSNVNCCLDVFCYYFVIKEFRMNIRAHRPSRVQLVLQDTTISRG

Cannabinoid receptor 2 [11] = biological target: T1, Cannabinoid receptor 2; experiment: SAR analysis of agonists of the Cannabinoid Receptor 2 using an Image-Based Assay - Set 2. [Related pubchem assays (depositor defined):AID1961, AID1965]; format: functional
[12] = biological target: T2, G-protein coupled receptor 35 (Homo sapiens, UniProt Q9HC97); experiment: SAR analysis of Agonists of the GPR35 Receptor using an Image-Based Assay - Set 3. [Related pubchem assays (depositor defined):AID1961, AID1965]; format: functional
T2 sequence (Q9HC97 whole entry): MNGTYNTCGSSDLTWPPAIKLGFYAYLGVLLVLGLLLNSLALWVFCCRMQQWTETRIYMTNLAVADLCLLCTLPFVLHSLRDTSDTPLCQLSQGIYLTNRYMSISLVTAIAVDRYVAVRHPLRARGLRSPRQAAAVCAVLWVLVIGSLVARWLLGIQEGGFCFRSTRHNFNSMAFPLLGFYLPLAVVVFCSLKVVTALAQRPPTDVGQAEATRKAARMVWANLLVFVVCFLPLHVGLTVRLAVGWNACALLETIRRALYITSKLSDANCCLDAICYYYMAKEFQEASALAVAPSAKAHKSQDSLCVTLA

Cannabinoid receptor 1 [13] = biological target: T3, Cannabinoid receptor 1 (Homo sapiens, UniProt P21554); experiment: SAR analysis of antagonists of the Cannabinoid Receptor 1 using an Image-Based Assay - Set 3. [Related pubchem assays (depositor defined):AID1961, AID1965]; format: functional
T3 sequence (P21554 whole entry): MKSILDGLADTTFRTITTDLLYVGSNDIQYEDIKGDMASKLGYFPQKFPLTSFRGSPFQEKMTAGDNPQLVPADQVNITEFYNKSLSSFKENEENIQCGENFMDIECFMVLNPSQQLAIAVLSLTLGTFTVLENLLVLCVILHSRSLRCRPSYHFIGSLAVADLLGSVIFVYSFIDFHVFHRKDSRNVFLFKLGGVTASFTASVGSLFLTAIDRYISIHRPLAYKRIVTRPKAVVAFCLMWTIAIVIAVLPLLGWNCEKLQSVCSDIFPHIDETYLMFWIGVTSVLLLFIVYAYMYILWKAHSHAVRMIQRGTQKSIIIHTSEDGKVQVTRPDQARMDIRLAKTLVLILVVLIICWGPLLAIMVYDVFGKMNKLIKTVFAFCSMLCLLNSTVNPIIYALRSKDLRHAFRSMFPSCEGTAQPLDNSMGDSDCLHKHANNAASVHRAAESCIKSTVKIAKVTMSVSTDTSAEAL

Cannabinoid receptor 1 [14] = biological target: T3, Cannabinoid receptor 1; experiment: SAR analysis of agonists of the Cannabinoid Receptor 1 using an Image-Based Assay - Set 3. [Related pubchem assays (depositor defined):AID1961, AID1965]; format: functional
[15] = biological target: T2, G-protein coupled receptor 35; experiment: SAR analysis of Antagonists of the GPR35 Receptor using an Image-Based Assay - Set 4. [Related pubchem assays (depositor defined):[…]]; format: functional
Mu-type opioid receptor = Mu-type opioid receptor (Homo sapiens, UniProt P35372); experiment: SAR Analysis of Antagonists of the MOR Receptor using an Image-Based Assay - Set 3. [Related pubchem assays (depositor defined):AID1777, AID1785, AID1786, AID1966, AID2133, AID2136, AID2284, AID2285, AID2420]; format: functional
Mu-type opioid receptor, sequence (P35372 whole entry): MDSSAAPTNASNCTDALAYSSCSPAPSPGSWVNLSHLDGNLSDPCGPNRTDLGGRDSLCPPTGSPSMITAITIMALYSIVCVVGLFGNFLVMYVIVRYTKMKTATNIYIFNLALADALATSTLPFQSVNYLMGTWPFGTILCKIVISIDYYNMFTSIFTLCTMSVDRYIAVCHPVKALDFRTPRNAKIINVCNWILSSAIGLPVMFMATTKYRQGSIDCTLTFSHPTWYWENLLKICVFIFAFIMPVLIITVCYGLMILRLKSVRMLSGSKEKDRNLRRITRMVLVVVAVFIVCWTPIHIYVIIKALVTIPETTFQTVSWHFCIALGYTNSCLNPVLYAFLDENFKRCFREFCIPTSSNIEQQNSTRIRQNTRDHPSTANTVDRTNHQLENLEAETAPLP

[16] = biological target: Delta-type opioid receptor (Homo sapiens, UniProt P41143); experiment: SAR Analysis of Antagonists of the DOR Receptor using an Image-Based Assay - Set 3. [Related pubchem assays (depositor defined):AID1777, AID1785]; format: functional;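 note: U2OS cells expressing DOR1 and beta-arrestin GFP stimulated with 100 nM SNC80; imaging of GFP-tagged beta-arrestin moving into spots after receptor activation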
Delta-type opioid receptor, sequence (P41143 whole entry): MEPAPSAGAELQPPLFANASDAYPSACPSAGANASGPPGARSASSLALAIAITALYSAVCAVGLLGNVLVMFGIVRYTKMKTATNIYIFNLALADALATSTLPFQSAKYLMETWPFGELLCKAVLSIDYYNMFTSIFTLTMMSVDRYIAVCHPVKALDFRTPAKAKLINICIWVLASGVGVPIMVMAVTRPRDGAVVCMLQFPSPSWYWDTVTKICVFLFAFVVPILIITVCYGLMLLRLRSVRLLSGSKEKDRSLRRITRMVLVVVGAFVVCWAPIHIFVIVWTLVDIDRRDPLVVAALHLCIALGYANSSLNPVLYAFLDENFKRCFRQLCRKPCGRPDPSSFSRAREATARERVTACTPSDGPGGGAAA

[17] = biological target: T4, Kappa-type opioid receptor (Homo sapiens, UniProt P41145); experiment: SAR analysis of small molecule antagonists of the kappa opioid receptor via a luminescent beta-arrestin assay - Set 3. [Related pubchem assays (depositor defined):AID1777, AID1778, AID1785, AID1786, AID1966, AID2133, AID2136, AID2285, AID2495]; format: functional
T4 sequence (P41145 whole entry): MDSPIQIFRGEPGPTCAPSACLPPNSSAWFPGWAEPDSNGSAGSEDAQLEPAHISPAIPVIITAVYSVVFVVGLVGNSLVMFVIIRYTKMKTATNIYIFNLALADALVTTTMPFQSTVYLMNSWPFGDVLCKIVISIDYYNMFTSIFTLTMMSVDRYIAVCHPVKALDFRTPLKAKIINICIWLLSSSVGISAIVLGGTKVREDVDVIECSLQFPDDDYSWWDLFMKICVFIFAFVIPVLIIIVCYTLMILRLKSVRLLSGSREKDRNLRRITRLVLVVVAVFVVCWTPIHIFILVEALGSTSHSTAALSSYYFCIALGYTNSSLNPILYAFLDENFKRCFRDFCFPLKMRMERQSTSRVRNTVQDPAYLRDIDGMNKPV

[18] = biological target: T4, Kappa-type opioid receptor; experiment: SAR analysis of Antagonists of the Kappa Opioid Receptor (KOR) using an Image-Based Assay - Set 4. [Related pubchem assays (depositor defined):AID1777, AID1785]; format: functional
[19] = biological target: T5, Tyrosine-protein phosphatase non-receptor type 7 (Homo sapiens, UniProt P35236); experiment: SAR analysis of chemical inhibitors of HePTP using a Fluorescent assay - Set 2. [Related pubchem assays (depositor defined):AID1059, AID1077, AID1661, AID2085, AID521]; format: functional
T5 sequence (P35236 whole entry): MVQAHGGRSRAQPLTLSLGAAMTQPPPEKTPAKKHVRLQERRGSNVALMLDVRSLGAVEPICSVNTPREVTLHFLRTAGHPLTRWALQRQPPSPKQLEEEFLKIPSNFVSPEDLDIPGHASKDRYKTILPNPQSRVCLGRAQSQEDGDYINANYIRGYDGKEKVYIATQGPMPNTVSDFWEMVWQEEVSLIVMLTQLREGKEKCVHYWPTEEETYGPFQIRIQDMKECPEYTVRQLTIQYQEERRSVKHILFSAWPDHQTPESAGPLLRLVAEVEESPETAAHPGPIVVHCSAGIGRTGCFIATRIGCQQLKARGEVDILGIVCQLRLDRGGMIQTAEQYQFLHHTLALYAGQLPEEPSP

[20] = biological target: Dual specificity protein phosphatase 3 (Homo sapiens, UniProt P51452); experiment: SAR VHR1 Fluorescent Assay for In Vitro dose response studies Set 2. [Related pubchem assays (depositor defined):AID1654, AID1661, AID1878]; format: functional
Dual specificity protein phosphatase 3, sequence (P51452 whole entry): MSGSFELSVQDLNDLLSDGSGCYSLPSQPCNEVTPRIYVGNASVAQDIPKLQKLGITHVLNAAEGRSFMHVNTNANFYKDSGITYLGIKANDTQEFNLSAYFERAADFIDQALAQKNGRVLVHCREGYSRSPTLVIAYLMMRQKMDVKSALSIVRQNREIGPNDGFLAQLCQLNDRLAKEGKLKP

cells [21] = format: functional, cell-based
cells [22] = format: functional, cell-based; remark: listed apart in the source
Integrin alpha-L = Integrin alpha-L (Mus musculus, UniProt P24063); experiment: modulators of CD8 T cell-vesicle binding, dose response, powder samples, mouse 2C CD8+ cells (AID 504565); format: functional
Integrin alpha-L, sequence (P24063 whole entry): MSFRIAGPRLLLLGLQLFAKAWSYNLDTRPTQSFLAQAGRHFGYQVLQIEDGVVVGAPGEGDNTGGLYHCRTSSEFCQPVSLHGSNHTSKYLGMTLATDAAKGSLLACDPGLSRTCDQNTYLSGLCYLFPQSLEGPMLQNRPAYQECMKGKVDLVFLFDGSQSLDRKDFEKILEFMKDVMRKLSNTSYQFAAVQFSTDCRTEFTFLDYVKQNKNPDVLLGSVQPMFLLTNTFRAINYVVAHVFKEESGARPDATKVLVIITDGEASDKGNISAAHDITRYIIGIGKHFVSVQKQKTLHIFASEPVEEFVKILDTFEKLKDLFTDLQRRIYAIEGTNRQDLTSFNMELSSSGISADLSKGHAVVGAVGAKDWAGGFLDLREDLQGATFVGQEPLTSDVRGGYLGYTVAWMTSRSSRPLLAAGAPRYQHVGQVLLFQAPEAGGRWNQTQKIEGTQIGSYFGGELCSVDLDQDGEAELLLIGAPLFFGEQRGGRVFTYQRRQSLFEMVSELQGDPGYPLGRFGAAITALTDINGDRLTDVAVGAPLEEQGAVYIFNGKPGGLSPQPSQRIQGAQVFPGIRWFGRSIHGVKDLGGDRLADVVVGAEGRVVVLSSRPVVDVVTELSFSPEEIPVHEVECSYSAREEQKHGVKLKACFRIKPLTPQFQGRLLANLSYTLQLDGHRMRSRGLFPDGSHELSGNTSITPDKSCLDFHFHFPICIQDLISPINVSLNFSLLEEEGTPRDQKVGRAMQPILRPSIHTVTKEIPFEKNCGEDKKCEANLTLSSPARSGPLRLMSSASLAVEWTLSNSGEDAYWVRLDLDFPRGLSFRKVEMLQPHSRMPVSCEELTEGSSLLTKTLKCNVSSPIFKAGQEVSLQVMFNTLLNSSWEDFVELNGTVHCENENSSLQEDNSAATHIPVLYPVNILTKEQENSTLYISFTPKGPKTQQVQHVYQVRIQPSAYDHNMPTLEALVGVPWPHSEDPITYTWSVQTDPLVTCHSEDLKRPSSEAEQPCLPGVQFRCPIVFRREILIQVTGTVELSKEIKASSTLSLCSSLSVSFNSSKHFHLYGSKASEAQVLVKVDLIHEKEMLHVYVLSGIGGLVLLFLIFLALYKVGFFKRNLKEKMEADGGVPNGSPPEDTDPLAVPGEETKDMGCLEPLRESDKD

T-cell = experiment: inhibitors of CD8+ T cell–vesicle binding, dose response, mouse 2C CD8+ T cells, flow cytometry (AID 485284); format: functional

SMILES: Cc1c(C(=O)N2CCN(c3ccc(F)cc3)CC2)sc2ncnc(N3CCN(c4ccccn4)CC3)c12
- EC50 (HEK293 [1]): 5.71 µM (active)
- IC50 (HEK293 [2]): 4.81 µM (active)
- IC50 (HEK293 [3]): 16.8 µM (active)
- EC50 [4]: 4.24 µM (active)
- IC50 (HEK293 [5]): 7.42 µM (inactive)
- IC50 (HEK293 [6]): 11.9 µM (active)

SMILES: CCc1ccc(S(=O)(=O)Nc2ccc(Br)cn2)cc1
- AC50 (Vibrio harveyi [7]): 3.22 µM (active)
- AC50 (Vibrio harveyi [8]): 8.16 µM (active)

- IC50 (Cannabinoid receptor 2 [9]): > 32 µM (inactive)
- EC50 [10]: 0.608 µM (active)
- EC50 (Cannabinoid receptor 2 [11]): > 32 µM (inactive)
- EC50 [12]: > 32 µM (inactive)
- IC50 (Cannabinoid receptor 1 [13]): 27.1 µM (inactive)
- EC50 (Cannabinoid receptor 1 [14]): > 32 µM (inactive)
- IC50 [15]: > 32 µM (inactive)
SMILES: CN(C)S(=O)(=O)c1ccc(N2CCCC2)c(C(=O)N2CCN(c3cccc(Cl)c3)CC2)c1

- IC50 (Mu-type opioid receptor): 10.8 µM (inactive)
- IC50 [16]: > 32 µM (inactive)
- IC50 [17]: 2.65 µM (active)
- IC50 [18]: 0.49 µM (active)
SMILES: COc1ccc(N2CCN(CCCNC(=O)Cn3c(=O)c4cccn4c4cccnc43)CC2)c(OC)c1

SMILES: Fc1ccc(CNC(=S)c2ccc(Br)cc2)cc1C(F)(F)F
- IC50 [19]: 23.4 µM (active)
- IC50 [20]: 19.3 µM (active)

SMILES: CCOCC(=O)Nc1ccc(S(=O)(=O)N2CCC(c3nc4ccccc4[nH]3)CC2)cc1
- EC50 (cells [21]): > 350 µM (not active)
- EC50 (cells [22]): > 350 µM (not active)
- EC50 (Integrin alpha-L): 0.246 µM (active)
- EC50 (T-cell): 1.37 µM (active)
